According to PMC12115184, “Metformin-Induced Apoptosis Is Mediated Through Mitochondrial VDAC1” (Pharmaceuticals, 2025):

Target: T1, VDAC1 (Rattus norvegicus, UniProt Q9Z2L0)
T1 construct: VDAC1 purified from rat liver mitochondria (channel conductance)
Experiment: planar lipid bilayer conductance of reconstituted purified VDAC1; MST with N-terminal peptide
Format: biochemical

T1 sequence (Q9Z2L0 2-283): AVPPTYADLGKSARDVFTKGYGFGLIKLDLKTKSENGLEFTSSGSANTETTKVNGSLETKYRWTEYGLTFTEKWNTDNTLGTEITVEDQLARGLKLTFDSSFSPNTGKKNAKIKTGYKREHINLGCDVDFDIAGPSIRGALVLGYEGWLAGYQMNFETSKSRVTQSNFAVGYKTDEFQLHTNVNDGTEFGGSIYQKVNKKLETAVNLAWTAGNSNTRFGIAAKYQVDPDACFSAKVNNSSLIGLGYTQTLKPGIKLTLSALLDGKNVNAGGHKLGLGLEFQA

Structure (SMILES): CN(C)C(=N)N=C(N)N [metformin, 3-(diaminomethylidene)-1,1-dimethylguanidine]
- planar lipid bilayer conductance of reconstituted purified VDAC1; MST with N-ter: Metformin reduced VDAC1 conductance only after the channel was exposed to a high voltage step.
